# Laboratory results from patent US20160310613A1, “METHODS AND COMPOSITIONS FOR OVERCOMING DRUG-RESISTANCE IN CANCER BY TARGETED DELIVERY OF PRO-DRUG-NANO-POLYMERS” (priority 2015, published 2016).
# How the values were obtained:
# [1] = test system: MCF-7 MDR Doxorubicin resistant cells; assay: Epi-fluorescent microscopy of doxorubicin delivery and retention
# [2] = test system: SKOV-3 TR resistant Ovarian cancer cells; assay: cells; assay type: cell-based
# Experimental: Human ovarian cancer (SKOV-3 TR) resistant cells were cultured using the same protocol described for culturing SKOV-3 TR resistant cells in Example 8 above. Cultured cells (SKOV-3 TR) were incubated with bispecific anti-Her-2 Affibody-anti-DTPA antibody at a concentration of 20 μg/ml for 24 hours at 37° C. […] After 24-48 h incubation at 37° C., viability was assessed by Trypan Blue exclusion test using CellTiter Blue® (Promega, Madison, Wis.) following the manufacturer's protocol as described above in Example 8.
# SKOV-3 sensitive and SKOV-3 TR resistant Ovarian cancer cells were cultured using the same protocol described in Examples 8 and 9 above. Cultured cells were incubated with bispecific anti-Her-2 Affibody-anti-DTPA antibody.
# [3] = test system: SKOV-3 sensitive Ovarian cancer cells; assay: cells; conditions: Homo sapiens, SK-OV-3, read-out: IC50 value in SKOV-3 sensitive cells
# Experimental: (§1) Human ovarian cancer (SKOV-3) sensitive cells were grown in six well plates. Aliquots of 5000 cells/well were seeded in the cell culture treated 96 well plates and were grown for 24 hours. Cultured cells (SKOV-3) were incubated with bispecific anti-Her-2 Affibody-anti-DTPA antibody at a concentration of 20 or 40 μg/ml for 24 hours at 37° C. […] After 24 h incubation at 37° C., viability was assessed by Trypan Blue exclusion test using CellTiter Blue® (Promega, Madison, Wis.) following the manufacturer's protocol. Briefly, media was removed from plates containing cells incubated with agent-polymer conjugates. The plates were washed 2× with 200 μl of complete medium and then incubated with 50 μl of 1:50 dilution of CellTiter Blue® reagent for 2 hours. Cell viability was then evaluated by measuring the fluorescence (excitation 530 nm, emission 590 nm) using a Synergy HT multi-21 detection microplate reader (Biotek, Winooski, Vt.). Cells treated with complete media alone were used as controls to calculate the 100% cell viability and the studies were carried out in triplicates in at least 3 different assays. […] The above studies were repeated for 48 h incubation time.
# [4] = test system: SKOV-3 sensitive Ovarian cancer cells; conditions: cells pretargeted with anti-HER2/neu affibody, FIG. 7
# Experimental: as §1
compound,measurement,setting,value
"COc1cccc2c1C(=O)c1c(O)c3c(c(O)c1C2=O)C[C@@](O)(C(=O)CO)C[C@@H]3O[C@H]1C[C@H](N)[C@H](O)[C@H](C)O1 [free Dox, doxorubicin]",Doxorubicin fluorescence in cells,"[1]; 15 μg/ml, incubated 5 h, FIG. 8A",nuclear sequestration
same,Doxorubicin uptake in cells,"[1]; incubated 1 h, then Dox free medium 4 h, FIG. 8B",less Dox uptake occurred
"CC(=O)O[C@H]1C(=O)[C@@]2(C)[C@H]([C@H](OC(=O)c3ccccc3)[C@]3(O)C[C@H](OC(=O)[C@H](O)[C@@H](NC(=O)c4ccccc4)c4ccccc4)C(C)=C1C3(C)C)[C@]1(OC(C)=O)CO[C@@H]1C[C@@H]2O [free PTXL, Paclitaxel]",IC50,"[2]; Homo sapiens, SKOV3TR, free drug, FIG. 7",0.936 µg/mL
same,IC50 in SKOV-3 TR resistant cells relative to SKOV-3 sensitive cells,[2]; ratio resistant/sensitive,about 10 times higher
same,IC50,[3],0.089 µg/mL
DTPA-Doxorubicin-Poly Glutamic acid [D-Dox-PGA],Doxorubicin retention in cells,"[1]; pretargeted with bispecific biotinylated-anti-DTPA antibody, 1 h, then Dox free media 4 h, FIG. 8C",more Dox is retained
DTPA-Paclitaxel-Poly Glutamic acid [D-PTXL-PGA],Amount needed to obtain 50% cell killing in SKOV-3 TR cells relative to free PTXL,[2]; SKOV-3 TR cells,5 times less
same,IC50 value in paclitaxel resistant ovarian cancer cells,"[2]; cells pretargeted with anti-HER2/neu affibody, FIG. 7",0.069 µg/mL
same,Concentration needed to obtain 50% cell killing in SKOV-3 TR resistant relative to SKOV-3 sensitive cells,[2]; ratio resistant/sensitive,2 time more
same,IC50 value in paclitaxel sensitive ovarian cancer cells,[4],0.089 µg/mL
